Reference: paper PMC6968685 (Journal of Enzyme Inhibition and Medicinal Chemistry, 2020)
Like-named read-outs stand apart in the source and are kept apart here.

Legend:
[1] = system: T. brucei brucei AnTat 1.9; experiment: In vitro antitrypanosomal activity, Alamar Blue assay; assay type: cell-based; details: for IC50: Trypanosoma brucei, slender bloodstream trypomastigotes, AnTat 1.9 strain, read-out: Trypanosoma brucei brucei IC50 values, Trypanos Antat 1.9; for Selectivity index HepG2/Tryp.: SI = CC50 HepG2 / IC50 Trypanosoma brucei brucei
Procedure: The effects of the tested compounds on the growth of T. brucei brucei were assessed using an Alamar Blue® assay described by Räz et al.[49] T. brucei brucei AnTat 1.9 (IMTA, Antwerpen, Belgium) was cultured in MEM with Earle’s salts, supplemented according to the protocol of Baltz et al.[50] with the following modifications: 0.5 mM mercaptoethanol (Sigma Aldrich), 1.5 mM L-cysteine (Sigma Aldrich), 0.05 mM bathocuproine sulphate (Sigma Aldrich), and 20% heat-inactivated horse serum (Gibco, France) at 37 °C and 5% CO2. Samples were incubated at an average density of 2000 parasites/well in sterile 96-wells plates (Fisher, France) with various concentrations of compounds dissolved in 0.9% NaCl. All doses were tested in duplicate. Appropriate controls treated with solvents 0.9% NaCl or DMSO or with suramin, pentamidine, eflornithine, and fexinidazole (reference drugs purchased from Sigma Aldrich and Fluorochem, UK) were added to each set of experiments. After 69 h incubation period at 37 °C, 10 µl of the viability marker Alamar Blue (Fisher) was added to each well, and the plates were incubated for 5 h. The plates were read in a PerkinElmer ENSPIRE (Germany) microplate reader using an excitation wavelength of 530 nm and an emission wavelength of 590 nm. […] IC50 values were calculated using a nonlinear regression analysis of dose-response curves performed using GraphPad Prism software (La Jolla, CA). IC50 values were calculated from three independent experiments.

[2] = system: P. falciparum CQ-sensitive strain 3D7; experiment: In vitro antiplasmodial activity, SYBR Green I fluorescence-based method, strain 3D7; assay type: cell-based; details: for IC50: Plasmodium falciparum, chloroquine-sensitive strain 3D7, 48 h incubation, read-out: P. falciparum strains IC50 values, 3D7; for Selectivity index HepG2/3D7: SI = CC50 HepG2 / IC50 P. falciparum 3D7
Procedure: The in vitro antiplasmodial activities were tested over concentrations ranging from […] against culture-adapted P. falciparum reference strains 3D7 and W2. […] The parasites were cultivated in RPMI medium (Sigma-Aldrich, Lyon, France) supplemented with 0.5% Albumax I (Life Technologies Corporation, Paisley, UK), hypoxanthine (Sigma-Aldrich), and gentamicin (Sigma-Aldrich) with human erythrocytes and were incubated at 37 °C in a candle jar, as described previously[43] .The P. falciparum drug susceptibility test was carried out in 96-well flat-bottom sterile plates in a final volume of 250 µl. After 48 h incubation period with the drugs, quantities of DNA in treated and control cultures of parasites in human erythrocytes were quantified using the SYBR Green I (Sigma-Aldrich) fluorescence-based method[44]^,[45]. Briefly, after incubation, plates were frozen at −20 °C until use. Plates were then thawed for 2 h at room temperature, and 100 µl of each homogenised culture was transferred to a well of a 96-well flat-bottom sterile black plate (Nunc, Inc., Rochester, NY) that contained 100 µl of the SYBR Green I lysis buffer (2xSYBR Green, 20 mM Tris base pH 7.5, 5 mM EDTA, 0.008% w/v saponin, 0.08% w/v Triton X-100). […] Plates were incubated for 1 h at room temperature and then read on a fluorescence plate reader (Tecan, Grödig, Austria) using excitation and emission wavelengths of 485 and 535 nm, respectively. IC50 values were calculated by non-linear regression analysis of data from dose-response curves, using TableCurve 2D version 5.0 software (Systat Software, San Jose, CA). IC50 values are reported as means calculated from three independent experiments.

[3] = system: L. donovani (MHOM/IN/00/DEVI) promastigotes; experiment: In vitro antileishmanial activity, MTT assay on promastigotes; assay type: cell-based; details: Leishmania donovani, 72 h incubation, ≥10 = no activity noted at the highest concentration tested
Procedure: L. donovani (MHOM/IN/00/DEVI) used in this study was provided by the CNR Leishmania (Montpellier, France). The effects of the tested compounds on the growth of L. donovani (MHOM/IN/00/DEVI) promastigotes were assessed by MTT assay. Briefly, promastigotes in log-phase in Schneider’s medium supplemented with 20% foetal calf serum (FCS), 2 mM L-glutamine and antibiotics (100 U/ml penicillin and 100 µg/ml streptomycin), were incubated at an average density of 10^6 parasites/ml in sterile 96-well plates with various concentrations of compounds dissolved in DMSO (final concentration less than 0.5% v/v), in duplicate. Appropriate controls treated with DMSO and amphotericin B (reference drug purchased from Sigma-Aldrich) were added to each set of experiments. After 72 h incubation period at 27 °C, parasite metabolic activity was determined. Each well was microscopically examined for precipitate formation. To each well was added 20 µl of 5 mg/ml MTT [3–(4,5-dimethylthiazol-2-yl)-2,5-diphenyltetrazolium bromide)] solution followed by 4 h incubation time. The enzyme reaction was stopped by addition of 100 µl of 50% isopropanol/10% sodium dodecyl sulfate. Plates were vigorously shaken (300 rpm) for 10 min, and the absorbance was measured at 570 nm in a BIO-TEK ELx808 Absorbance Microplate Reader. […] IC50 of the parasite’s growth (half maximal inhibitory concentration or IC50 values) were then calculated from the obtained experimental results using a previously described regression programme.

[4] = Cytotoxicity evaluation, MTT; assay type: cell-based, human; details: human
Procedure: These cells are a commonly used human hepatocarcinoma-derived cell line that has characteristics similar to those of primary hepatocytes. These cells express many hepatocyte-specific metabolic enzymes, thus enabling the cytotoxicity of tested product metabolites to be evaluated. […] Duplicate assays were performed for each sample. Each well was microscopically examined for precipitate formation before the medium was aspirated from the wells. After aspiration, 100 µl of MTT solution (0.5 mg/ml in medium without FCS) were then added to each well. […] The MTT solution was removed, and DMSO (100 µl) was added to dissolve the resulting blue formazan crystals. Plates were shaken vigorously (300 rpm) for 5 min. The absorbance was measured at 570 nm with 630 nm as reference wavelength in a BIO-TEK ELx808 Absorbance Microplate Reader. DMSO was used as blank and doxorubicin (Sigma Aldrich) as positive control. Cell viability was calculated as percentage of control (cells incubated without compound). The CC50 was determined from the dose-response curve using the TableCurve 2D version 5.0 software (Systat Software, San Jose, CA)

Row | SMILES | IC50 [1] [nM] | IC50 [2] [nM] | Selectivity index HepG2/3D7 [2] | IC50 [3] [nM] | Selectivity index HepG2/Tryp. [1] | CC50 at 72 h [4] [nM] | CC50 at 72 h ([4]; HepG2 cells, 72 h, read-out: Cytotoxicity to HepG2 cells CC50 values) [nM]
1 | NCCCC(N)(C(=O)O)C(F)F (centres unmarked) [Eflornithine, reference compound] | 15200 ± 640 | – | – | – | – | – | –
2 | c1cc(CNCCCN2CCOCC2)cc(-c2nc(-c3cccc(CNCCCN4CCOCC4)c3)c3ccccc3n2)c1 [Compound 3u, 2,4-Bis{3-[(3-morpholinopropyl)aminomethyl]phenyl}quinazoline] | 720 ± 70 | 430 ± 142 | 6.14 | ≥ 10000 | 3.67 | 2640 ± 200 | –
3 | COc1ccc2c(-c3ccc(CNCCCN(C)C)cc3)nc(-c3ccc(CNCCCN(C)C)cc3)nc2c1 [Compound 3n, 7-Methoxy-2,4-bis{4-[(3-dimethylaminopropyl)aminomethyl]phenyl}quinazoline] | 1050 ± 58 | 2520 ± 237 | 1.08 | ≥ 10000 | 2.58 | 2710 ± 300 | –
4 | COc1cccc2c1C(=O)c1c(O)c3c(c(O)c1C2=O)C[C@@](O)(C(=O)CO)C[C@@H]3O[C@H]1C[C@H](N)[C@H](O)[C@H](C)O1 [Doxorubicin, reference compound] | – | – | – | – | – | – | 60 ± 20
5 | CN1CCN(CCCNCc2ccc(-c3nc(-c4ccc(CNCCCN5CCN(C)CC5)cc4)c4ccccc4n3)cc2)CC1 [Compound 3e, 2,4-Bis{4-[(3–(4-methylpiperazin-1-yl)propyl)aminomethyl]phenyl}quinazoline] | 2390 ± 129 | 1520 ± 172 | 10.44 | ≥ 10000 | 6.64 | 15900 ± 1700 | –
6 | Cc1ccc(C(=O)Nc2ccc(S(=O)(=O)O)c3cc(S(=O)(=O)O)cc(S(=O)(=O)O)c23)cc1NC(=O)c1cccc(NC(=O)Nc2cccc(C(=O)Nc3cc(C(=O)Nc4ccc(S(=O)(=O)O)c5cc(S(=O)(=O)O)cc(S(=O)(=O)O)c45)ccc3C)c2)c1 [Suramine, reference compound] | 30 ± 3 | – | – | – | – | – | –
7 | CN(C)CCNCc1ccc(-c2nc(-c3ccc(CNCCN(C)C)cc3)c3ccccc3n2)cc1 [Compound 3c, 2,4-Bis{4-[(2-dimethylaminoethyl)aminomethyl]phenyl}quinazoline] | 1480 ± 178 | 1060 ± 103 | 14.97 | ≥ 10000 | 10.72 | 15900 ± 1700 | –
8 | CN(C)CCCNCc1cccc(-c2nc(-c3cccc(CNCCCN(C)C)c3)c3ccccc3n2)c1 [Compound 3s, 2,4-Bis{3-[(3-dimethylaminopropyl)aminomethyl]phenyl}quinazoline] | 2070 ± 196 | 1130 ± 107 | 1.01 | ≥ 10000 | 0.55 | 1140 ± 400 | –
9 | CN1CCN(CCCNCc2cccc(-c3nc(-c4cccc(CNCCCN5CCN(C)CC5)c4)c4ccccc4n3)c2)CC1 [Compound 3t, 2,4-Bis{3-[(3–(4-methylpiperazin-1-yl)propyl)aminomethyl]phenyl}quinazoline] | 2050 ± 535 | 2240 ± 435 | 13.20 | ≥ 10000 | 14.42 | 29600 ± 2200 | –
10 | CN1CCN(CCCCNCc2ccc(-c3nc(-c4ccc(CNCCCCN5CCN(C)CC5)cc4)c4ccccc4n3)cc2)CC1 [Compound 3d, 2,4-Bis{4-[(4–(4-methylpiperazin-1-yl)butyl)aminomethyl]phenyl}quinazoline] | 1860 ± 135 | 2350 ± 488 | 12.22 | ≥ 10000 | 15.44 | 28700 ± 1900 | –
11 | C[C@@H]1[C@H](O)[C@@H](C)/C=C/C=C/C=C/C=C/C=C/C=C/C=C/[C@H](O[C@@H]2O[C@H](C)[C@@H](O)[C@H](N)[C@@H]2O)C[C@@H]2O[C@](O)(C[C@@H](O)C[C@@H](O)[C@H](O)CC[C@@H](O)C[C@@H](O)CC(=O)O[C@H]1C)C[C@H](O)[C@H]2C(=O)O [Amphotericin B, reference compound] | – | – | – | 100 ± 40 | – | – | –
12 | CN1CCN(CCCCNCc2ccc(-c3cc(-c4ccc(CNCCCCN5CCN(C)CC5)cc4)c4ccccc4n3)cc2)CC1 [Compound 1d, 2,4-Bis{4-[(4–(4-methylpiperazin-1-yl)butyl)aminomethyl]phenyl}quinoline] | 1220 ± 121 | 690 ± 70 | 11.17 | ≥ 10000 | 6.32 | 7710 ± 400 | –
13 | CN1CCN(CCCNCc2cccc(-c3cc(-c4cccc(CNCCCN5CCN(C)CC5)c4)c4ccccc4n3)c2)CC1 [Compound 1r, 2,4-Bis{3-[(3–(4-methylpiperazin-1-yl)propyl)aminomethyl]phenyl}quinoline] | 1360 ± 194 | 1950 ± 774 | 2.55 | ≥ 10000 | 3.65 | 4970 ± 300 | –
14 | CN(C)CCCCNCc1ccc(-c2cc(-c3ccc(CNCCCCN(C)C)cc3)c3ccccc3n2)cc1 [Compound 1a, 2,4-Bis{4-[(4-dimethylaminobutyl)aminomethyl]phenyl}quinoline] | 840 ± 33 | 4080 ± 488 | 1.45 | ≥ 10000 | 7.03 | 5910 ± 1500 | –
15 | CSc1ccc(OCc2ncc([N+](=O)[O-])n2C)cc1 [Fexinidazole, reference compound] | 590 ± 39 | – | – | – | – | – | –
16 | CN(C)CCCCNCc1ccc(-c2nc(-c3ccc(CNCCCCN(C)C)cc3)c3ccccc3n2)cc1 [Compound 3a, 2,4-Bis{4-[(4-dimethylaminobutyl)aminomethyl]phenyl}quinazoline] | 900 ± 54 | 2150 ± 106 | 1.96 | ≥ 10000 | 4.70 | 4230 ± 400 | –
